Assay results taken from the CheMixHub viscosity set.
± gives the uncertainty stated by the source.

Experiment: xn = mol fraction of the nth substance listed

O=S1(=O)CCCC1 + ClCCCl
viscosity [mPa·s], 100 kPa
Settings | x1 = 0.0168 | x1 = 0.1062 | x1 = 0.2045 | x1 = 0.3091 | x1 = 0.4077 | x1 = 0.5125 | x1 = 0.6483 | x1 = 0.8007 | x1 = 0.9708
303.15 K | 0.8741 ± 0.023 | 1.693 ± 0.04 | 2.594 ± 0.06 | 3.559 ± 0.081 | 4.475 ± 0.1 | 5.452 ± 0.12 | 6.725 ± 0.14 | 8.157 ± 0.16 | 9.753 ± 0.19
308.15 K | 0.8027 ± 0.022 | 1.515 ± 0.036 | 2.303 ± 0.054 | 3.149 ± 0.072 | 3.949 ± 0.089 | 4.803 ± 0.11 | 5.911 ± 0.13 | 7.157 ± 0.15 | 8.551 ± 0.17
313.15 K | 0.7524 ± 0.021 | 1.384 ± 0.034 | 2.086 ± 0.049 | 2.837 ± 0.065 | 3.545 ± 0.08 | 4.3 ± 0.097 | 5.28 ± 0.12 | 6.382 ± 0.13 | 7.617 ± 0.15

CCCCOCCOCCO + ClCCl
298.15 K, 101.33 kPa
Settings | viscosity [mPa·s]
x1 = 0.0047 | 0.418 ± 0.012
x1 = 0.012 | 0.433 ± 0.013
x1 = 0.02 | 0.448 ± 0.013
x1 = 0.0388 | 0.48 ± 0.014
x1 = 0.0685 | 0.56 ± 0.015
x1 = 0.1079 | 0.649 ± 0.017
x1 = 0.1533 | 0.78 ± 0.02
x1 = 0.1882 | 0.907 ± 0.023
x1 = 0.2206 | 1.028 ± 0.026
x1 = 0.2751 | 1.226 ± 0.03
x1 = 0.3166 | 1.409 ± 0.034
x1 = 0.3515 | 1.576 ± 0.038
x1 = 0.397 | 1.807 ± 0.043
x1 = 0.4383 | 2.028 ± 0.048
x1 = 0.4759 | 2.224 ± 0.052
x1 = 0.5118 | 2.425 ± 0.056
x1 = 0.5496 | 2.627 ± 0.061
x1 = 0.6026 | 2.965 ± 0.068
x1 = 0.6535 | 3.267 ± 0.074
x1 = 0.7124 | 3.628 ± 0.082
x1 = 0.7606 | 3.893 ± 0.088
x1 = 0.8051 | 4.163 ± 0.094
x1 = 0.854 | 4.458 ± 0.1
x1 = 0.9019 | 4.724 ± 0.11
x1 = 0.9342 | 4.893 ± 0.11
x1 = 0.9731 | 5.104 ± 0.11

Nc1ccccc1Cl + Clc1cccc(Cl)c1
viscosity [mPa·s], 101 kPa
Settings | x1 = 0.1088 | x1 = 0.2155 | x1 = 0.3202 | x1 = 0.4228 | x1 = 0.5235 | x1 = 0.6224 | x1 = 0.7194 | x1 = 0.8147 | x1 = 0.9082
303.15 K | 1.108 ± 0.023 | 1.292 ± 0.027 | 1.499 ± 0.031 | 1.732 ± 0.036 | 1.994 ± 0.042 | 2.288 ± 0.048 | 2.615 ± 0.054 | 2.979 ± 0.062 | 3.382 ± 0.07
308.15 K | 1.043 ± 0.022 | 1.211 ± 0.025 | 1.398 ± 0.029 | 1.607 ± 0.034 | 1.84 ± 0.038 | 2.098 ± 0.044 | 2.382 ± 0.05 | 2.695 ± 0.056 | 3.038 ± 0.063
313.15 K | 0.9857 ± 0.021 | 1.138 ± 0.024 | 1.308 ± 0.027 | 1.496 ± 0.031 | 1.703 ± 0.036 | 1.931 ± 0.04 | 2.179 ± 0.045 | 2.45 ± 0.051 | 2.743 ± 0.057
318.15 K | 0.9257 ± 0.019 | 1.066 ± 0.022 | 1.222 ± 0.025 | 1.392 ± 0.029 | 1.579 ± 0.033 | 1.781 ± 0.037 | 2.001 ± 0.042 | 2.237 ± 0.047 | 2.491 ± 0.052

CC(O)CC(C)(C)O (stereo unspecified) + Clc1ccccc1
viscosity [mPa·s], 101 kPa
Settings | x1 = 0.0989 | x1 = 0.1989 | x1 = 0.2931 | x1 = 0.3916 | x1 = 0.4927 | x1 = 0.5867 | x1 = 0.6888 | x1 = 0.7938 | x1 = 0.8999
308.15 K | 0.7755 ± 0.078 | 0.9332 ± 0.093 | 1.164 ± 0.12 | 1.513 ± 0.15 | 2.151 ± 0.22 | 2.823 ± 0.28 | 4.238 ± 0.42 | 6.453 ± 0.65 | 10.85 ± 1.1
318.15 K | 0.6372 ± 0.064 | 0.7412 ± 0.074 | 0.9438 ± 0.095 | 1.242 ± 0.12 | 1.814 ± 0.18 | 2.278 ± 0.23 | 3.416 ± 0.34 | 5.241 ± 0.52 | 9.228 ± 0.92

Nc1ccccc1Cl + Clc1ccccc1Cl
viscosity [mPa·s], 101 kPa
Settings | x1 = 0.1063 | x1 = 0.2111 | x1 = 0.3145 | x1 = 0.4164 | x1 = 0.517 | x1 = 0.6162 | x1 = 0.7141 | x1 = 0.8107 | x1 = 0.906
303.15 K | 1.4 ± 0.28 | 1.584 ± 0.32 | 1.786 ± 0.36 | 2.008 ± 0.4 | 2.251 ± 0.45 | 2.516 ± 0.5 | 2.805 ± 0.56 | 3.119 ± 0.62 | 3.458 ± 0.69
308.15 K | 1.295 ± 0.26 | 1.461 ± 0.29 | 1.642 ± 0.33 | 1.84 ± 0.37 | 2.054 ± 0.41 | 2.287 ± 0.46 | 2.539 ± 0.51 | 2.81 ± 0.56 | 3.101 ± 0.62
313.15 K | 1.192 ± 0.24 | 1.342 ± 0.27 | 1.506 ± 0.3 | 1.683 ± 0.34 | 1.875 ± 0.38 | 2.081 ± 0.42 | 2.303 ± 0.46 | 2.54 ± 0.51 | 2.792 ± 0.56
318.15 K | 1.102 ± 0.22 | 1.24 ± 0.25 | 1.39 ± 0.28 | 1.551 ± 0.31 | 1.724 ± 0.34 | 1.909 ± 0.38 | 2.105 ± 0.42 | 2.313 ± 0.46 | 2.532 ± 0.51

Cc1ccccc1N + NCCO
viscosity [mPa·s], 100 kPa
Settings | x1 = 0.0997 | x1 = 0.1749 | x1 = 0.2629 | x1 = 0.3629 | x1 = 0.4797 | x1 = 0.5707 | x1 = 0.6849 | x1 = 0.7826 | x1 = 0.8935
303.15 K | 13.32 ± 0.8 | 12.49 ± 0.75 | 11.51 ± 0.69 | 10.39 ± 0.63 | 9.093 ± 0.55 | 8.076 ± 0.49 | 6.799 ± 0.41 | 5.704 ± 0.34 | 4.459 ± 0.27
308.15 K | 11.11 ± 0.67 | 10.42 ± 0.63 | 9.62 ± 0.58 | 8.704 ± 0.52 | 7.633 ± 0.46 | 6.796 ± 0.41 | 5.745 ± 0.35 | 4.842 ± 0.29 | 3.815 ± 0.23
313.15 K | 9.063 ± 0.55 | 8.521 ± 0.51 | 7.884 ± 0.47 | 7.159 ± 0.43 | 6.309 ± 0.38 | 5.646 ± 0.34 | 4.812 ± 0.29 | 4.095 ± 0.25 | 3.278 ± 0.2
318.15 K | 7.032 ± 0.42 | 6.632 ± 0.4 | 6.161 ± 0.37 | 5.624 ± 0.34 | 4.994 ± 0.3 | 4.503 ± 0.27 | 3.884 ± 0.23 | 3.352 ± 0.2 | 2.744 ± 0.17

O=S1(=O)CCCC1 + NCCO
viscosity [mPa·s], 101 kPa
Settings | x2 = 0.1 | x2 = 0.3369 | x2 = 0.5426 | x2 = 0.7423 | x2 = 0.8999
303.15 K | 14.02 ± 0.28 | 11.47 ± 0.23 | 9.923 ± 0.2 | 9.547 ± 0.19 | 9.78 ± 0.2
323.15 K | 7.103 ± 0.14 | 6.2 ± 0.12 | 5.815 ± 0.12 | 5.85 ± 0.12 | 6.195 ± 0.12

Cc1ccc(O)cc1 + Nc1ccccc1
viscosity [mPa·s], 101.33 kPa
Settings | x1 = 0.2696 | x1 = 0.4987 | x1 = 0.5914 | x1 = 0.7696 | x1 = 0.8857
298.15 K | 6.95 ± 0.069 | 10.7 ± 0.11 | 12.4 ± 0.12 | 14.4 ± 0.14 | 14.5 ± 0.14
323.15 K | 2.93 ± 0.029 | 3.97 ± 0.04 | 4.26 ± 0.043 | 4.62 ± 0.046 | 4.71 ± 0.047

O=S1(=O)CCCC1 + Nc1ccccc1
viscosity [mPa·s], 101 kPa
Settings | x2 = 0.1 | x2 = 0.1955 | x2 = 0.3007 | x2 = 0.3902 | x2 = 0.4997 | x2 = 0.6003 | x2 = 0.7027 | x2 = 0.7982 | x2 = 0.8995
303.15 K | 9.14 ± 0.19 | 8.22 ± 0.17 | 7.31 ± 0.15 | 6.62 ± 0.14 | 5.86 ± 0.12 | 5.24 ± 0.11 | 4.66 ± 0.1 | 4.17 ± 0.09 | 3.69 ± 0.08
308.15 K | 8.01 ± 0.17 | 7.2 ± 0.15 | 6.39 ± 0.14 | 5.78 ± 0.12 | 5.1 ± 0.11 | 4.55 ± 0.1 | 4.03 ± 0.09 | 3.59 ± 0.08 | 3.17 ± 0.07
313.15 K | 7.05 ± 0.15 | 6.33 ± 0.13 | 5.61 ± 0.12 | 5.06 ± 0.11 | 4.46 ± 0.09 | 3.97 ± 0.08 | 3.51 ± 0.07 | 3.12 ± 0.07 | 2.75 ± 0.06
